Source: PubChem BioAssay (NCI)
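Method: 48-hour compound exposure of cells in 96-well plates, five concentrations, linear interpolation of endpoints. GI50 is the concentration that inhibits growth by half. TGI: concentration producing complete growth inhibition.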

Tests used:
Assay in all cases: inhibition of tumour cell growth, NCI panel, 48 h
NCI-H460 lung = tested on: NCI-H460 lung
T-47D breast = tested on: T-47D breast
HCT-15 colon = tested on: HCT-15 colon
786-0 renal = tested on: 786-0 renal
HL-60(TB) leukemia = tested on: HL-60(TB) leukemia
NCI-H522 lung = tested on: NCI-H522 lung
HCT-116 colon = tested on: HCT-116 colon
MCF7 breast = tested on: MCF7 breast
EKVX NSCLC = tested on: EKVX NSCLC
UACC-62 melanoma = tested on: UACC-62 melanoma
A498 renal = tested on: A498 renal
SK-MEL-5 melanoma = tested on: SK-MEL-5 melanoma
SW-620 colon = tested on: SW-620 colon
KM12 colon = tested on: KM12 colon
BT-549 breast = tested on: BT-549 breast
IGROV1 ovarian = tested on: IGROV1 ovarian
MDA-MB-231 breast = tested on: MDA-MB-231 breast
HT29 colon = tested on: HT29 colon
HOP-92 NSCLC = tested on: HOP-92 NSCLC
NCI/ADR-RES ovarian = tested on: NCI/ADR-RES ovarian
OVCAR-3 ovarian = tested on: OVCAR-3 ovarian
OVCAR-8 ovarian = tested on: OVCAR-8 ovarian
DU-145 prostate = tested on: DU-145 prostate
MALME-3M melanoma = tested on: MALME-3M melanoma
SNB-75 CNS = tested on: SNB-75 CNS
ACHN renal = tested on: ACHN renal
OVCAR-4 ovarian = tested on: OVCAR-4 ovarian
HCC-2998 colon = tested on: HCC-2998 colon
OVCAR-5 ovarian = tested on: OVCAR-5 ovarian
A549 NSCLC = tested on: A549 NSCLC
SK-OV-3 ovarian = tested on: SK-OV-3 ovarian
HOP-62 NSCLC = tested on: HOP-62 NSCLC
COLO 205 colon = tested on: COLO 205 colon
RPMI-8226 leukemia = tested on: RPMI-8226 leukemia
U251 CNS = tested on: U251 CNS
PC-3 prostate = tested on: PC-3 prostate
CCRF-CEM leukemia = tested on: CCRF-CEM leukemia
UACC-257 melanoma = tested on: UACC-257 melanoma
MDA-MB-435 = tested on: MDA-MB-435
K-562 leukemia = tested on: K-562 leukemia
SF-539 CNS = tested on: SF-539 CNS
SK-MEL-2 melanoma = tested on: SK-MEL-2 melanoma
NCI-H226 lung = tested on: NCI-H226 lung
M14 melanoma = tested on: M14 melanoma
CAKI-1 renal = tested on: CAKI-1 renal
SR leukemia = tested on: SR leukemia
LOX IMVI melanoma = tested on: LOX IMVI melanoma
SK-MEL-28 melanoma = tested on: SK-MEL-28 melanoma
SN12C renal = tested on: SN12C renal
NCI-H23 lung = tested on: NCI-H23 lung
RXF 393 renal = tested on: RXF 393 renal
HS 578T breast = tested on: HS 578T breast
TK-10 renal = tested on: TK-10 renal
SF-295 CNS = tested on: SF-295 CNS
UO-31 renal = tested on: UO-31 renal
SF-268 CNS = tested on: SF-268 CNS
SNB-19 CNS = tested on: SNB-19 CNS
MOLT-4 leukemia = tested on: MOLT-4 leukemia

In the case of `COC(=O)[C@H](C)NC(=O)NC(=O)NC(=O)CI`, the GI50 (NCI-H460 lung) is reported as 20.1 µM, the TGI (NCI-H460 lung) is reported as 40.8 µM and the GI50 (T-47D breast) is reported as 7.46 µM. It also gave a TGI (T-47D breast) of 32.2 µM, a GI50 (HCT-15 colon) of 5.26 µM and a TGI (HCT-15 colon) of 18 µM. It also gave a GI50 (786-0 renal) of 17.3 µM, a TGI (786-0 renal) of 32.1 µM and a GI50 (HL-60(TB) leukemia) of 2.15 µM. For the same compound, the TGI (HL-60(TB) leukemia) was 4.51 µM, the GI50 (NCI-H522 lung) was 1.96 µM and the TGI (NCI-H522 lung) was 3.68 µM. For the same compound, the GI50 (HCT-116 colon) was 13.9 µM, the TGI (HCT-116 colon) was 28.4 µM and the GI50 (MCF7 breast) was 10.2 µM. The TGI (MCF7 breast) was 29.8 µM, the GI50 (EKVX NSCLC) was 17.5 µM and the TGI (EKVX NSCLC) was 32 µM. The GI50 (UACC-62 melanoma) was 16.8 µM, the TGI (UACC-62 melanoma) was 34.2 µM and the GI50 (A498 renal) was 15.4 µM. It also gave a TGI (A498 renal) of 30.4 µM, a GI50 (SK-MEL-5 melanoma) of 17.6 µM and a TGI (SK-MEL-5 melanoma) of 31.8 µM. For the same compound, the GI50 (SW-620 colon) was 16.5 µM, the TGI (SW-620 colon) was 34.4 µM and the GI50 (KM12 colon) was 17.8 µM. The TGI (KM12 colon) was 35.5 µM, the GI50 (BT-549 breast) was 15 µM and the TGI (BT-549 breast) was 28.6 µM. It also gave a GI50 (IGROV1 ovarian) of 17.1 µM, a TGI (IGROV1 ovarian) of 35.4 µM and a GI50 (MDA-MB-231 breast) of 18.8 µM. The TGI (MDA-MB-231 breast) was 37.9 µM, the GI50 (HT29 colon) was 18.1 µM and the TGI (HT29 colon) was 36.4 µM. The GI50 (HOP-92 NSCLC) was 6.79 µM, the TGI (HOP-92 NSCLC) was 19.7 µM and the GI50 (NCI/ADR-RES ovarian) was 19.1 µM. For the same compound, the TGI (NCI/ADR-RES ovarian) was 43 µM, the GI50 (OVCAR-3 ovarian) was 12.3 µM and the TGI (OVCAR-3 ovarian) was 25.2 µM. For the same compound, the GI50 (OVCAR-8 ovarian) was 16.6 µM, the TGI (OVCAR-8 ovarian) was 33.9 µM and the GI50 (DU-145 prostate) was 15.4 µM. For the same compound, the TGI (DU-145 prostate) was 29.2 µM, the GI50 (MALME-3M melanoma) was 2.07 µM and the TGI (MALME-3M melanoma) was 5.13 µM. It also gave a GI50 (SNB-75 CNS) of 15.9 µM, a TGI (SNB-75 CNS) of 30.3 µM and a GI50 (ACHN renal) of 6.76 µM. The TGI (ACHN renal) was 21 µM, the GI50 (OVCAR-4 ovarian) was 11.6 µM and the TGI (OVCAR-4 ovarian) was 24.4 µM. The GI50 (HCC-2998 colon) was 17.3 µM, the TGI (HCC-2998 colon) was 33.6 µM and the GI50 (OVCAR-5 ovarian) was 16.7 µM. It also gave a TGI (OVCAR-5 ovarian) of 36 µM, a GI50 (A549 NSCLC) of 20 µM and a TGI (A549 NSCLC) of 36.3 µM. For the same compound, the GI50 (SK-OV-3 ovarian) was 19 µM, the TGI (SK-OV-3 ovarian) was 39.1 µM and the GI50 (HOP-62 NSCLC) was 17.2 µM. For the same compound, the TGI (HOP-62 NSCLC) was 32.6 µM, the GI50 (COLO 205 colon) was 2.54 µM and the TGI (COLO 205 colon) was 6.49 µM. It also gave a GI50 (RPMI-8226 leukemia) of 3.64 µM, a TGI (RPMI-8226 leukemia) of 18.3 µM and a GI50 (U251 CNS) of 17.3 µM. It also gave a TGI (U251 CNS) of 31.4 µM, a GI50 (PC-3 prostate) of 17.1 µM and a TGI (PC-3 prostate) of 32.2 µM. The GI50 (CCRF-CEM leukemia) was 2.03 µM, the TGI (CCRF-CEM leukemia) was 4.44 µM and the GI50 (UACC-257 melanoma) was 15.8 µM. For the same compound, the TGI (UACC-257 melanoma) was 29.9 µM, the GI50 (MDA-MB-435) was 10.3 µM and the TGI (MDA-MB-435) was 23.5 µM. It also gave a GI50 (K-562 leukemia) of 4.16 µM, a TGI (K-562 leukemia) of 17 µM and a GI50 (SF-539 CNS) of 15.9 µM. The TGI (SF-539 CNS) was 30.3 µM, the GI50 (SK-MEL-2 melanoma) was 15.4 µM and the TGI (SK-MEL-2 melanoma) was 29.9 µM. For the same compound, the GI50 (NCI-H226 lung) was 19.8 µM, the TGI (NCI-H226 lung) was 44.9 µM and the GI50 (M14 melanoma) was 11.8 µM. For the same compound, the TGI (M14 melanoma) was 27.5 µM, the GI50 (CAKI-1 renal) was 2.53 µM and the TGI (CAKI-1 renal) was 6.73 µM. For the same compound, the GI50 (SR leukemia) was 2.43 µM, the TGI (SR leukemia) was 5.94 µM and the GI50 (LOX IMVI melanoma) was 2.27 µM. For the same compound, the TGI (LOX IMVI melanoma) was 5.97 µM, the GI50 (SK-MEL-28 melanoma) was 14.4 µM and the TGI (SK-MEL-28 melanoma) was 29.9 µM. It also gave a GI50 (SN12C renal) of 19.8 µM, a TGI (SN12C renal) of 39.3 µM and a GI50 (NCI-H23 lung) of 16.8 µM. For the same compound, the TGI (NCI-H23 lung) was 36.9 µM, the GI50 (RXF 393 renal) was 12.5 µM and the TGI (RXF 393 renal) was 25.5 µM. It also gave a GI50 (HS 578T breast) of 21.4 µM, a TGI (HS 578T breast) of 54.1 µM and a GI50 (TK-10 renal) of 16.9 µM. It also gave a TGI (TK-10 renal) of 30.6 µM, a GI50 (SF-295 CNS) of 17.4 µM and a TGI (SF-295 CNS) of 33.1 µM. The GI50 (UO-31 renal) was 6.83 µM, the TGI (UO-31 renal) was 20.1 µM and the GI50 (SF-268 CNS) was 17.2 µM. For the same compound, the TGI (SF-268 CNS) was 36.3 µM, the GI50 (SNB-19 CNS) was 19.8 µM and the TGI (SNB-19 CNS) was 43.1 µM. The GI50 (MOLT-4 leukemia) was 2.21 µM and the TGI (MOLT-4 leukemia) was 5.17 µM.
